According to article PMC9256790 (Molecular cancer therapeutics, 2022):

How the values were obtained:
[1] = system: orthotopic MDA-MB-231 xenografts; assay: Orthotopic MDA-MB-231 xenograft in comparison with CA4P; assay type: in vivo, mice
[2] = system: cHCI-2; assay: Cell proliferation; assay type: cell-based, Human; conditions: for proliferation of cHCI-2 cells: 10 nM, 5 days of treatment
[3] = system: cHCI-10; assay: Cell proliferation; assay type: cell-based, Human; conditions: for proliferation of cHCI-10 cells: 10 nM, 5 days of treatment
[4] = system: MDA-MB-231 or MDA-MB-468 cells; assay: Colony formation assay; assay type: cell-based, Human; conditions: 1 to 4 nM; both TNBC cell lines
[5] = system: MDA-MB-231 cells; assay: Immunofluorescence staining of microtubules; assay type: cell-based, Human; conditions: 24 h
[6] = system: MDA-MB-231 cells; assay: Wound healing; assay type: cell-based, Human; conditions: 4 nM, 24 h
[7] = system: MDA-MB-231 and MDA-MB-468 cells; assay: Cell cycle analysis; assay type: cell-based, Human; conditions: 10 nM; 24 h
[8] = system: MDA-MB-231/TxR; assay: Cell proliferation; assay type: cell-based; conditions: Homo sapiens, read-out: Mean IC50 ± SEM
[9] = system: MDA-MB-468; assay: Cell proliferation; assay type: cell-based; conditions: Homo sapiens, MDA-MB-468, read-out: Mean IC50 ± SEM
[10] = system: MDA-MB-468/TxR; assay: Cell proliferation; assay type: cell-based; conditions: Homo sapiens, MDA-MB-468, read-out: Mean IC50 ± SEM
[11] = system: Mia PaCa-2; assay: Cell proliferation; assay type: cell-based; conditions: Homo sapiens, MIA PaCa-2, read-out: Mean IC50 ± SEM
[12] = system: Mia PaCa-2/ColxR; assay: Cell proliferation; assay type: cell-based; conditions: Homo sapiens, MIA PaCa-2, read-out: Mean IC50 ± SEM
[13] = Homo sapiens, 120 h, read-out: Mean IC50 ± SEM

| IC50 [8] | IC50 [9] | IC50 [10] | IC50 [11] | IC50 [12] | Structure (SMILES) | average tumor volume vs vehicle ([1]; 28 mg/kg (equivalent to 20 mg/kg CA4) IP 5 times/week) | body weight ([1]; 28 mg/kg IP 5 times/week) | proliferation of cHCI-2 cells [2] | proliferation of cHCI-10 cells [3] | colony formation [4] | microtubule structure ([5]; 2.5 nM) | microtubule structure ([5]; 5 nM, interphase) | wound closure [6] | cell cycle distribution [7] | IC50 [2, 13] | IC50 [3, 13] | microtubule structure ([5]; 2.5 nM or 5 nM, interphase and mitotic phase) |
| --- | --- | --- | --- | --- | --- | --- | --- | --- | --- | --- | --- | --- | --- | --- | --- | --- | --- |
| – | – | – | – | – | COc1ccc(/C=C\c2cc(OC)c(OC)c(OC)c2)cc1OP(=O)(O)O [CA4P, fosbretabulin] | significantly reduced | no significant loss in body weight | – | – | – | – | – | – | – | – | – | – |
| – | – | – | – | – | COc1cc2c(c(OC)c1OC)-c1ccc(OC)c(=O)cc1[C@@H](NC(C)=O)CC2 [Colchicine] | – | – | limited effects | limited effects | no effect | similarly organized and intact microtubule structures as untreated cells | disseminated and depolymerized microtubule arrangement | closed similar to untreated control cells | little effect on cell cycle progression | – | – | – |
| 112 ± 37.8 nM | 2 ± 0.2 nM | 152 ± 23.8 nM | 5.5 ± 0.6 nM | 10.6 ± 1.1 nM | CC(=O)O[C@H]1C(=O)[C@@]2(C)[C@H]([C@H](OC(=O)c3ccccc3)[C@]3(O)C[C@H](OC(=O)[C@H](O)[C@@H](NC(=O)c4ccccc4)c4ccccc4)C(C)=C1C3(C)C)[C@]1(OC(C)=O)CO[C@@H]1C[C@@H]2O [Paclitaxel] | – | – | reduced the proliferation | no activity | robustly inhibited colony formation | – | – | – | arrested the cells into the M phase and the subG1 phase | 12.7 ± 5.8 nM | 43.6 ± 8.2 nM | condensed microtubules |
